Assay [1] addresses VEGFR2 (KDR) (Homo sapiens (Human), UniProt P35968). The assay can be described thus: VEGFR2 (KDR) enzyme assay, fluorescence polarization. It counts as biochemical. Particulars: 5 μM ATP, poly(Glu, Tyr) substrate. The method, then:
VEGFR2 (KDR, Proquinase) enzyme assay (auto-phosphorylation assay) was carried out by using Tyrosine Kinase Assay Kit Green (Panvera). The entire assay was conducted in accordance with VEGFR PTK inhibitor cellular activity test S.O.P.
A typical kinase inhibition reaction requires a protein tyrosine kinase, a suitable buffer solution system, a peptide substrate and ATP. In the present VEGFR tyrosine kinase assay, a buffer solution system containing 20 mM HEPES (pH 7.4), 5 mM MgCl2 and 2 mM MnCl2; 50 μM Na3VO4; 200 ng/10 μl VEGFR (Proquinase); 5 μM ATP; and 10 ng/ml poly(Glu, Tyr) (4:1, Sigma) as a substrate were used.
The compounds of Test Example 1 were used as control compounds at a concentration of 0.0001 to 10 μM. After 10 min, 10 μl of poly(Glu, Tyr) as a substrate was added to each well, and 10 μl of ATP was added thereto to initiate kinase reaction. The plate was incubated at room temperature for 1 hour, and 10 μl of 100 mM EDTA was added to each well to terminate the kinase reaction.
The added EDTA was mixed for 5 min. Thereafter, 10 μl of 10× anti-phosphotyrosine antibody (Panvera), 10 μl of 10×PTK Green Tracer (Panvera) and 30 μl of FP dilution buffer (Panvera) were added thereto, and the plate was incubated in a dark room at room temperature for 30 min.
A general note: Polarisation of emitted light reports the rotation of a fluorescent probe.

Assay [2] relates to Human Umbilical Vein Endothelial Cell (HUVEC). Put plainly: Inhibitory effect on growth of human umbilical vein endothelial cell (HUVEC), MTS. It is filed as cell-based. Particulars: Homo sapiens, 96 h, 10 ng/ml VEGF, absorbance 490 nm.
The subject of assay [3] is breast cancer cell line, SK-Br3. The assay can be described thus: Inhibitory effect on growth of cancer cell line SK-Br3, SRB. It counts as cell-based. The note with it: Homo sapiens, SK-BR-3, 72 h, overexpressed EGFR2 (HER-2). A digest of the protocol: (§1)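 Growth inhibition was measured by sulforhodamine-B staining (absorbance 570 nm) of TCA-fixed cells after 72 h compound exposure at 37 °C, 5% CO2. Test concentrations ran from 10 μM in 10-fold steps to 10^−4, with DMSO below 1%, in 10% FBS DMEM.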

Assay [4] relates to colon and rectal cancer cell line, SW-620. The assay can be described thus: Inhibitory effect on growth of cancer cell line SW-620, SRB. It is filed as cell-based. Particulars: Homo sapiens, 72 h, not having overexpressed EGFR and EGFR2. In short, it runs like this:
as §1

The target in assay [5] is EGFR1 (HER-1) (Homo sapiens (Human), UniProt P00533). The assay can be described thus: EGFR1 (HER-1) enzyme assay, fluorescence polarization. It counts as biochemical. Particulars: 100 μM ATP, poly(Glu, Tyr) substrate.
Chain of EGFR1 (HER-1) (P00533 25-1210): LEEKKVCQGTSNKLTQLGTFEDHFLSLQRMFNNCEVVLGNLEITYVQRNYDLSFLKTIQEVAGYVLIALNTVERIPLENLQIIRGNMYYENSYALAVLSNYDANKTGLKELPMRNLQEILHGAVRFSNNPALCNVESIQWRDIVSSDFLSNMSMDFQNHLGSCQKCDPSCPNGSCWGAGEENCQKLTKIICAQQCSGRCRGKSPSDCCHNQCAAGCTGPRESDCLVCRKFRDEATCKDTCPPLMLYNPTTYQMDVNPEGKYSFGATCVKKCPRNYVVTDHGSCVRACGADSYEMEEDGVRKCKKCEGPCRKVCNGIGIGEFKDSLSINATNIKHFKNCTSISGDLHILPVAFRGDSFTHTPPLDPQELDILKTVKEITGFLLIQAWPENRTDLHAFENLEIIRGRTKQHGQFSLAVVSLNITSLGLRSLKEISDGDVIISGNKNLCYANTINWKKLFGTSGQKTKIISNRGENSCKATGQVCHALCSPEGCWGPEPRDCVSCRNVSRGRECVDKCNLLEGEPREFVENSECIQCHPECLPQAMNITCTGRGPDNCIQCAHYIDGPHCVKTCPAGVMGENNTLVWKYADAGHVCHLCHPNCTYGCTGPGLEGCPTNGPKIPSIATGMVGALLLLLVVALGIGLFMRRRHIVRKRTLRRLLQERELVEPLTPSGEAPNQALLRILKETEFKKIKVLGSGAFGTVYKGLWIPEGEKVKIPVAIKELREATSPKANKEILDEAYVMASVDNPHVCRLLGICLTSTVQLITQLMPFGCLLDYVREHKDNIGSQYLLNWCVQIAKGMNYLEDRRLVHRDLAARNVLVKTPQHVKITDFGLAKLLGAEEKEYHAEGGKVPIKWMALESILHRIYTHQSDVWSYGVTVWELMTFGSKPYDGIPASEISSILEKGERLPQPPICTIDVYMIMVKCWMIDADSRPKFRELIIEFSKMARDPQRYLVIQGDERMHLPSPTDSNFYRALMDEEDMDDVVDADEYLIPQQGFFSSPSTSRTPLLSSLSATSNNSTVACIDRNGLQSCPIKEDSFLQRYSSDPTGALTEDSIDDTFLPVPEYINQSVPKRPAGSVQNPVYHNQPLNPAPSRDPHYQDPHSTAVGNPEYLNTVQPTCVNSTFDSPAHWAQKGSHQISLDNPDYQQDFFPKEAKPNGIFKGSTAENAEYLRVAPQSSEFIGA
The subject of assay [6] is skin cancer cell line, A431. The assay can be described thus: Inhibitory effect on growth of cancer cell line A431, SRB. It counts as cell-based. Particulars: Homo sapiens, A-431, 72 h, overexpressed EGFR1 (HER-1). A digest of the protocol:
as §1

SMILES strings stand for the structures.

Chain of VEGFR2 (KDR) (P35968 20-1356): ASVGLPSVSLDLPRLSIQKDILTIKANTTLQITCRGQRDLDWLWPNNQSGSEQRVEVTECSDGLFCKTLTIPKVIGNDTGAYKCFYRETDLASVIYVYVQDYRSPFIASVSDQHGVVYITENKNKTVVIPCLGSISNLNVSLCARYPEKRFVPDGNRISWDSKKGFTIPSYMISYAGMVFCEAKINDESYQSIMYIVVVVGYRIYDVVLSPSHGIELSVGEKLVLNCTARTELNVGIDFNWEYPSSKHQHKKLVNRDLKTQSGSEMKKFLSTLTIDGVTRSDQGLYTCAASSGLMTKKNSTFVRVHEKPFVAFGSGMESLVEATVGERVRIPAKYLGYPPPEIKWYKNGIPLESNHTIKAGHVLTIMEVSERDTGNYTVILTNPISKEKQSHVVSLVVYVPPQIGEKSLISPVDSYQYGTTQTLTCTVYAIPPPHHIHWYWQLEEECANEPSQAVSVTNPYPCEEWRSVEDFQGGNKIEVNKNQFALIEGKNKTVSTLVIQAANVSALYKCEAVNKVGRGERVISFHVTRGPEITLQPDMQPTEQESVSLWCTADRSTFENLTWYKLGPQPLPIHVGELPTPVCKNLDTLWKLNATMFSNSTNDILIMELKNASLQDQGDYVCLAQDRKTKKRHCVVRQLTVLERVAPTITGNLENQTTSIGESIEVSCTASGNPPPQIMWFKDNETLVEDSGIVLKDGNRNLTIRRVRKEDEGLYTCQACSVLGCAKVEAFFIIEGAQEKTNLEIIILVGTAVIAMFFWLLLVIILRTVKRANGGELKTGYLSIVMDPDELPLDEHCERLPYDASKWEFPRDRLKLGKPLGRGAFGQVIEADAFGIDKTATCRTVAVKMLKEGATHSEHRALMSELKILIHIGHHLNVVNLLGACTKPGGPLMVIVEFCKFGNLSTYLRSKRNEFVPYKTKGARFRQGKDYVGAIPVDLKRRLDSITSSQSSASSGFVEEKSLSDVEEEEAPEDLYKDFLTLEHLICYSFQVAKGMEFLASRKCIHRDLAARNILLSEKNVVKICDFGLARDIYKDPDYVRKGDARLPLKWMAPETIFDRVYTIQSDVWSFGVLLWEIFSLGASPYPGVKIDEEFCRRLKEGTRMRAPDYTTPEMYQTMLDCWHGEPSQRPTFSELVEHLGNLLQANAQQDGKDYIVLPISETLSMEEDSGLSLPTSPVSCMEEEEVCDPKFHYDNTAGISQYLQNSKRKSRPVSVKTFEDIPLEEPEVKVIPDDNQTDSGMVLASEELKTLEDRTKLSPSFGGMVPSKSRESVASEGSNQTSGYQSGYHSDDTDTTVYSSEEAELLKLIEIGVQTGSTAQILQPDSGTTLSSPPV

Turning to `C=CC(=O)Nc1cc2c(Nc3ccc(Br)cc3F)ncnc2cc1OCCNC(=O)C1CCCN1C(=O)CC` (stereo not drawn) [Example 106, 1-propionyl-pyrrolidine-2-carboxylic acid {2-[6-acryloylamino-4-(4-bromo-2-fluoro-phenylamino)-quinazolin-7-yloxy]-ethyl}-amide], the 50% inhibitory concentration (IC50) (in general, the point on the concentration scale where inhibition reaches its midpoint) was determined as 853 nM in assay [1]; 951 nM in assay [2]; 311 nM in assay [3]; 2800 nM in assay [4]; 196 nM in assay [5]; 264 nM in assay [6].
Consider `C=CC(=O)Nc1cc2c(Nc3ccc(Br)cc3F)ncnc2cc1OCCNC(C)=O` [Example 18, N-[7-(2-acetylamino-ethoxy)-4-(4-bromo-2-fluoro-phenylamino)-quinazolin-6-yl]-acrylamide], for which the IC50 was found to be 96 nM in assay [1]; 52 nM in assay [2]; 137 nM in assay [3]; 8070 nM in assay [4]; 2 nM in assay [5]; 15 nM in assay [6].
Consider `C=CC(=O)Nc1cc2c(Nc3ccc(Br)cc3F)ncnc2cc1OCCNC(=O)N1CCNCC1` [Example 94, piperazine-1-carboxylic acid {2-[6-acryloylamino-4-(4-bromo-2-fluoro-phenylamino)-quinazolin-7-yloxy]-ethyl}-amide], for which the half-maximal inhibitory concentration (IC50) in assay [1] was 698 nM; in assay [2], 694 nM; in assay [3], 2560 nM; in assay [4], 2320 nM; in assay [5], 698 nM; in assay [6], 739 nM.
On to `C=CC(=O)Nc1cc2c(Nc3cc(OC)c(Cl)cc3F)ncnc2cc1OCCNC(C)=O` [Example 129, N-[7-(2-acetylamino-ethoxy)-4-(4-chloro-2-fluoro-5-methoxy-phenylamino)-quinazolin-6-yl]-acrylamide], for which the IC50 in assay [1] is 357 nM; in assay [2], 350 nM; in assay [3], 106 nM; in assay [4] it was 721 nM; in assay [5] it was 80 nM; in assay [6], 82 nM.
Take `C=CC(=O)Nc1cc2c(Nc3ccc(Br)cc3F)ncnc2cc1OCCNC(=S)NC` [Example 35, N-{4-(4-bromo-2-fluoro-phenylamino)-7-[2-(3-methyl-thioureido)-ethoxy]-quinazolin-6-yl}-acrylamide]: the IC50 in assay [1] worked out at 457 nM; in assay [2] it was 951 nM; in assay [3], 225 nM; in assay [4] it was 9560 nM; in assay [5] it was 98 nM; in assay [6] it was 90 nM.
`C=CC(=O)Nc1cc2c(Nc3ccc(Br)cc3F)ncnc2cc1OCC1CCN(C(=O)NC(C)(C)C)CC1` [Example 11, 4-[6-acryloylamino-4-(4-bromo-2-fluoro-phenylamino)-quinazolin-7-yloxymethyl]-piperidin-1-carboxylic acid t-butylamide]: the IC50 worked out at 50 nM in assay [1]; 41 nM in assay [2]; 456 nM in assay [3]; 5680 nM in assay [4]; 14 nM in assay [5]; 59 nM in assay [6].
As for `C=CNC(=O)NCCOc1cc2ncnc(Nc3ccc(Br)cc3F)c2cc1NC(=O)C=C` [Example 39, N-{4-(4-bromo-2-fluoro-phenylamino)-7-[2-(3-vinyl-ureido)-ethoxy]-quinazolin-6-yl}-acrylamide], the IC50 in assay [1] was 264 nM; in assay [2] it was 325 nM; in assay [3], 176 nM; in assay [4] it was 4520 nM; in assay [5] it was 29 nM; in assay [6] it was 28 nM.
Turning to `C=CC(=O)Nc1cc2c(Nc3ccc(Br)cc3F)ncnc2cc1OCCOC` [Example 32, N-[4-(4-bromo-2-fluoro-phenylamino)-7-(2-methoxy-ethoxy)-quinazolin-6-yl]-acrylamide], the IC50 in assay [1] was 259 nM; in assay [2] it was 350 nM; in assay [3] it was 198 nM; in assay [4] it was 4550 nM; in assay [5], 25 nM; in assay [6], 31 nM.
As for `C=CC(=O)Nc1cc2c(Nc3ccc(Br)cc3F)ncnc2cc1OCCNC(=O)C=CCC` [Example 52, pent-2-enoic acid {2-[6-acryloylamino-4-(4-bromo-2-fluoro-phenylamino)-quinazolin-7-yloxy]-ethyl}-amide], the IC50 in assay [1] was 354 nM; in assay [2] it was 350 nM; in assay [3], 84 nM; in assay [4], 10000 nM; in assay [5], 36 nM; in assay [6] it was 37 nM.
Regarding `C=CC(=O)Nc1cc2c(Nc3ccc(Br)cc3F)ncnc2cc1OCCN(C)C` [Example 19, N-[4-(4-bromo-2-fluoro-phenylamino)-7-(2-dimethylamino-ethoxy)-quinazolin-6-yl]-acrylamide], the half-maximal inhibitory concentration (IC50) in assay [1] was found to be 450 nM; in assay [2], 350 nM; in assay [3] it was 813 nM; in assay [4], 10000 nM; in assay [5], 9 nM; in assay [6], 39 nM.
`C=CC(=O)Nc1cc2c(Nc3ccc(Br)cc3F)ncnc2cc1OCC(C)NC(=O)CCN(CC)CC` (stereo not drawn) [Example 155, N-{4-(4-bromo-2-fluoro-phenylamino)-7-[2-(3-diethylamino-propionylamino)-propoxy]-quinazolin-6-yl}-acrylamide]: the half-inhibitory concentration (IC50) was determined as 249 nM in assay [1]; 314 nM in assay [2]; 110 nM in assay [3]; 9550 nM in assay [4]; 24 nM in assay [5]; 35 nM in assay [6].
In the case of `C=CC(=O)Nc1cc2c(Nc3cc(Cl)c(Cl)cc3F)ncnc2cc1OCCNC(=O)CC` [Example 137, N-[4-(4,5-dichloro-2-fluoro-phenylamino)-7-(2-propionylamino-ethoxy)-quinazolin-6-yl]-acrylamide], the IC50 in assay [1] was 954 nM; in assay [2] it was 951 nM; in assay [3], 40 nM; in assay [4] it was 9580 nM; in assay [5] it was 4 nM; in assay [6], 5 nM.
Take `C=CC(=O)Nc1cc2c(Nc3ccc(Br)cc3F)ncnc2cc1OCCNC` [Example 30, N-[4-(4-bromo-2-fluoro-phenylamino)-7-(2-methylamino-ethoxy)-quinazolin-6-yl]-acrylamide]: the half-maximal inhibitory concentration (IC50) in assay [1] worked out at 513 nM; in assay [2], 964 nM; in assay [3], 581 nM; in assay [4] it was 4530 nM; in assay [5], 96 nM; in assay [6] it was 127 nM.
Regarding `C=CC(=O)Nc1cc2c(Nc3ccc(Br)cc3F)ncnc2cc1OCCNC(=O)C1CC1` [Example 21, cyclopropane carboxylic acid {2-[6-acrylamino-4-(4-bromo-2-fluoro-phenylamino)-quinazolin-7-yloxy]-ethyl}-amide], the half-maximal inhibitory concentration (IC50) in assay [1] is 513 nM; in assay [2] it was 951 nM; in assay [3], 36 nM; in assay [4], 7900 nM; in assay [5] it was 8 nM; in assay [6], 20 nM.
In the case of `C=CC(=O)Nc1cc2c(Nc3ccc(Br)cc3F)ncnc2cc1OCCNC(=O)CN1CCOCC1` [Example 103, N-{4-(4-bromo-2-fluoro-phenylamino)-7-[2-(2-morpholin-4-yl-acetylamino)-ethoxy]-quinazolin-6-yl}-acrylamide], the IC50 is 782 nM in assay [1]; 932 nM in assay [2]; 399 nM in assay [3]; 3670 nM in assay [4]; 32 nM in assay [5]; 35 nM in assay [6].
Take `C=CC(=O)Nc1cc2c(Nc3ccc(Br)cc3F)ncnc2cc1OCC1CCN(C(C)=O)CC1` [Example 1, N-[7-(1-acetyl-piperidin-4-ylmethoxy)-4-(4-bromo-2-fluoro-phenylamino)-quinazolin-6-yl]-acrylamide]: the IC50 in assay [1] turned out to be 131 nM; in assay [2], 85 nM; in assay [3] it was 283 nM; in assay [4] it was 3060 nM; in assay [5], 3 nM; in assay [6], 48 nM.
As to `C=CC(=O)Nc1cc2c(Nc3ccc(Br)cc3F)ncnc2cc1OCC(C)NC(=O)NCCC` (stereo not drawn) [Example 85, N-{4-(4-bromo-2-fluoro-phenylamino)-7-[2-(3-propyl-ureido)-propoxy]-quinazolin-6-yl}-acrylamide], the IC50 was determined as 784 nM in assay [1]; 964 nM in assay [2]; 178 nM in assay [3]; 2760 nM in assay [4]; 29 nM in assay [5]; 38 nM in assay [6].

Values taken from US8846699B2, “Quinazoline derivatives as a multiplex inhibitor and method for the preparation thereof” (Hanmi Pharm. Co., Ltd., priority 2005, dated 2014).
